Results published in US20070172825A1, “Methods and kits for identifying functions and binding substances of gene products” (HUMAN METABOLOME TECHNOLOGIES, INC., priority 2004, published 2007).

System: Escherichia coli gene product (lactate dehydrogenase)
Experiment: Reaction of purified gene product with 19-substrate compound cocktail, changes detected by CE/MS
Format: biochemical
Settings: 1 μg purified protein added to cocktail (100 μM each substrate, NADH 500 μM), 37° C., 30 min; control without gene product; FIG. 2
Description: As the compound cocktail, 100 μl of HEPES buffer (5 mM, pH7.5) comprising 19 different substrate compounds involved in the glycolytic system, TCA cycle, or pentose phosphate cycle (fructose-1,6-phosphate (F16P), 6-phosphogluconate (6PG), 2,3-phosphoglycerate (23DPG), glucose-1-phosphate (G1P), fructose-6-phosphate (F6P), glucose-6-phosphate (G6P), ribulose-5-phosphate (Ribulose5P), ribose-5-phosphate (Ribose5P), erythrose-4-phosphate (Erythrose4P), isocitric acid (iso-Citrate), citric acid (Citrate), 2-phosphoglycerate, 3-phosphoglycerate (2PG/3PG), cis-aconitic acid (cis-Aconitate), phosphoenolpyruvic acid (PEP), succinic acid (Succinate), fumaric acid (Fumarate), lactic acid (Lactate), and pyruvic acid (Pyruvate)) (100 μM each; the final concentration is shown in all parentheses hereafter), supplemented with NADH (500 μM), MgSO4 (10 mM), and KCl (10 mM) was used. […]
One μg of the purified protein was added to the above compound cocktail and incubated at 37° C. for 30 min. Immediately thereafter, the protein was removed by ultrafiltration and the reaction mixture was analyzed using a capillary electrophoresis-mass spectrometer (CE/MS). […]
CE/MS was used according to the instructions described in documents (Japanese Patent No. 3341765 and Soga T, et al., Anal. Chem., 74, 2233-2239 (2002)). […] Each compound can be detected as its own mass number (m/z).

SMILES	change in concentration of the compound in the cocktail compared with the control experiment
CC(O)C(=O)O (centres unmarked) [lactic acid]	increase
CC(=O)C(=O)O [pyruvic acid]	significant decrease
